#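 Method: 48-hour compound exposure of cells in 96-well plates, five concentrations, linear interpolation of endpoints. The concentration for 50% growth inhibition is given as GI50. TGI: concentration producing complete growth inhibition.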
# Key:
# Assay in all cases: inhibition of tumour cell growth, NCI panel, 48 h
# HS 578T breast = test system: HS 578T breast
# MCF7 breast = test system: MCF7 breast
# MDA-MB-231 breast = test system: MDA-MB-231 breast
# MDA-MB-435 = test system: MDA-MB-435
# PC-3 prostate = test system: PC-3 prostate
# T-47D breast = test system: T-47D breast
Compound,GI50 (HS 578T breast) [µM],TGI (HS 578T breast) [µM],GI50 (MCF7 breast) [µM],TGI (MCF7 breast) [µM],GI50 (MDA-MB-231 breast) [µM],TGI (MDA-MB-231 breast) [µM],GI50 (MDA-MB-435) [µM],TGI (MDA-MB-435) [µM],GI50 (PC-3 prostate) [µM],TGI (PC-3 prostate) [µM],GI50 (T-47D breast) [µM],TGI (T-47D breast) [µM]
O=C(Cc1ccc(Nc2ccnc(C(F)(F)F)c2)cc1)N/N=C/c1ccccc1O,2.66,29,2.94,23.7,2.55,> 74.9,3.67,> 77.5,1.09,16.6,3.26,17.7
NC(=N\N=C/c1ccc(Cl)cc1Cl)/C(N)=N\N=C/c1ccc(Cl)cc1Cl,3.39,> 30.4,> 73.8,> 100,17.1,> 100,> 100,> 100,> 100,> 100,1.35,> 76.4
O=C(O)c1cn(C2CC2)c2cc(N3CCN(C(=O)Nc4nc(-c5ccc(Br)cc5)cs4)CC3)c(F)cc2c1=O,1.91,> 100,2.7,> 100,3.48,> 100,1.88,> 100,,,1.57,> 100
CN(CSc1ccc(Cl)cc1)c1ccc(CSc2ccc(Cl)cc2)cc1,3.7,21.1,3.17,18.5,1.8,5.9,2.68,11.9,3.27,25.8,4.22,72
O=C1c2cccnc2C(=O)c2c1c(C(=O)OCCc1ccccn1)c1ccccn21,< 0.0338,3.21,< 0.01,0.147,1.48,> 100,0.0524,3.72,0.0563,6.57,1.71,8.39
CCN1C(=O)N(CC)C2C1NC(=S)N2/N=C/C=C/c1ccccc1OC (stereo not drawn),0.0514,> 100,0.0406,> 100,0.0413,,0.0189,0.0539,0.0411,> 100,34.6,> 100
N#Cc1c2ccccc2c2nnc3ccccc3n12,,,14.2,52.4,,,33.5,> 100,63.5,> 100,> 100,> 100
COc1ncc(-c2ccc3nccc(C#CCN4CCN(S(C)(=O)=O)CC4)c3c2)cc1NS(=O)(=O)c1ccc(F)cc1F,,,< 0.01,1.79,0.367,17.2,0.0915,1.26,0.058,10.9,< 0.01,0.0178
N#C/C(=C\c1ccc(F)cc1)n1nc2cccc(F)c2n1,,,2.24,> 100,5.55,> 100,1.89,4.62,4.68,> 100,4.2,> 100
O=C(NS(=O)(=O)c1ccc(NC[C@H]2COCCO2)c([N+](=O)[O-])c1)c1ccc(N2CCN(CC3=C(c4ccc(Cl)cc4)CC4(CCC4)CC3)CC2)cc1Oc1cnc2[nH]ccc2c1,2.12,5.76,2.29,10.4,1.62,3.21,,,2.43,13.5,2.24,8.99
NC(=O)CCc1ccccc1Oc1nccc(-c2c(-c3ccc(F)cc3)ncn2C2CCNCC2)n1,> 25,> 25,> 25,> 25,> 25,> 25,> 25,> 25,> 25,> 25,> 25,> 25
CCN(CC)CC(O)COc1c(Br)c(Br)c(Br)c2c1OC(C)(C)C2 (stereo not drawn),4.58,19,1.92,4.06,2.44,6.08,2.66,7.31,2.81,11.5,10.6,41
CCCCN(CC)CCCCCCCCCCN1CCCc2cc(OC)ccc21,4.2,> 100,1.8,3.59,2.26,7.04,2.41,7.06,3.06,12.7,2.11,5.83
CC(C)OCc1cc(CN2CCN(c3cccc(Cl)c3)CC2)c(O)c2ncccc12,4.03,35.3,0.377,11.5,0.611,14.2,0.923,11.4,0.525,16.9,0.556,18.4
O=C(c1cccs1)c1nc2cc(Cl)ccc2[n+]([O-])c1C(F)(F)F,> 100,> 100,52.2,> 100,> 100,> 100,> 100,> 100,71.4,> 100,,
COc1ccc(/C=C/C(=O)c2ccc(Nc3nc(Nc4ccc(F)cc4)nc(Nc4ccc(Cl)cc4)n3)cc2)cc1,14.6,52.3,0.292,31.7,29.5,> 100,> 100,> 100,30.6,> 100,72.6,> 100
CCC(C)(C)[C@H](NC(=O)[C@H]1CCCCN1C)C(=O)N(C)[C@H](C[C@@H](OC(C)=O)c1nc(C(=O)N[C@@H](Cc2ccccc2)C[C@H](C)C(=O)O)cs1)C(C)C,< 0.00167,> 11.5,< 0.00167,> 16.7,< 0.00167,,,,< 0.00167,> 16.7,,
Cn1c(NCC(CN2CCCC2)OC(=O)c2ccccc2)cc(=O)n(C)c1=O (stereo not drawn),> 100,> 100,> 100,> 100,> 100,> 100,> 100,> 100,> 100,> 100,> 100,> 100
COc1cc2c3c(n(CCCN4CCCNCC4)c(=O)c2cc1OC)-c1cc2c(cc1C3=O)OCO2,2.09,14.2,0.138,6.29,1.06,3.5,2.58,13.7,1.33,9.97,0.984,7.98

# From PubChem BioAssay (NCI)
